Assay [1] has as its target opioid δ receptor (Rattus norvegicus (Rat), UniProt P33533). The assay can be described thus: Binding assay of opioid δ receptor ([3H]-DADLE, rat cerebrum membrane). How it is done:
(§1) 1) Method of Preparing Membrane Specimen for Binding Assay
(§2) A rat cerebrum (Slc: SD) which had been stored at −80° C. was used. To a cerebrum which had been weighed was added a 20-fold amount of ice-cooled 10 mM Tris-HCl buffer (pH 7.0), and the mixture was homogenized (25000 rpm, 30 seconds) with Histocolon (NITI-ON), and centrifuged at 36600×g for 20 minutes. To the resulting pellet was added 15 ml of the same buffer, and the mixture was treated with Histocolon similarly, and centrifuged. This washing work was performed two times. After centrifugation, to the resulting pellet was added 15 mL of a 50 mM Tris-HCl buffer (pH 7.4), and this was treated with Histocolon, and finally resuspended in a 10-fold amount of the same buffer, which was used as a crude membrane fraction (Life Sci. 48, 111-116, 1991). The prepared membrane specimen was frozen and stored at −80° C., and at an assay, the specimen was rapidly thawed, and diluted to about 900 μg/mL with a 50 mM Tris-HCl buffer (pH 7.4) after the centrifugation and Histocolon treatment, and was used in an experiment. For measuring a protein concentration of the membrane specimen, Micro BCA Protein Assay Kit (PIERCE) was used.
2) Method of δ Receptor Binding Assay and Data Analysis
Into a tube was placed 480 μl of a rat cerebrum membrane fraction to which 100 mM choline chloride, 3 mM MnCl2 and 100 nM DAMGO had been added, and this was incubated at 25° C. for 2 hours. […] After washing, the filter was transferred to a mini vial for liquid scintillation counter, 5 mL of a scintillator (Cleasol I) was added, this was allowed to stand overnight, and the radioactivity was measured for 3 minutes with a liquid scintillation counter Tri-Carb 2200CA (PACKARD).

The target in assay [2] is opioid μ receptor (Rattus norvegicus (Rat), UniProt P33535). The assay can be described thus: Binding assay to opioid μ receptor ([3H]-DAMGO, rat cerebrum membrane). How it is done:
as §1
as §2, with “(pH 7.0), the mixture” for “(pH 7.0), and the mixture”, “(pH 7.4), this was” for “(pH 7.4), and this was”, “Histocolon, and this was finally resuspended” for “Histocolon, and finally resuspended”, “and at a test, the specimen” for “and at an assay, the specimen”
2) Method of μ Receptor Binding Assay and Data Analysis
After washing, the filter was transferred to a mini vial for liquid scintillation counter, 5 mL of a scintillator (Cleasol I) was added, and this was allowed to stand overnight, and the radioactivity was measured for 3 minutes with a liquid scintillation counter Tri-Carb 2200CA (PACKARD).

Assay [3] deals with carbon powder transport of inhibitory activity by morphine. Description: Mouse carbon powder transport assay (antagonism of morphine-inhibited small intestine transport). In kind it is in vivo. Conditions: sc, 1 h, test compound 3 mg/kg subcutaneously, 15 minutes before morphine 3 mg/kg. As for the experimental part:
1) Preparation of Test Diet (Carbon Powder)
Using a 10 w/v % arabic gum aqueous solution, a 5 w/v % active carbon solution was prepared, which was used as a test diet.
A ddY line male mouse (5 to 6 weeks old) was used. The mouse was fasted from about 20 or more hours before assay initiation, and water was given ad lib.
The test compound was dissolved in a solvent (DMAA/Solutol/5% meglumine=15/15/70).
Morphine hydrochloride was dissolved in a physiological saline. The test compound, the above solvent and morphine were all administered at a liquid amount of 10 mL/kg.
The test compound 3 mg/kg (test compound administration group) or the solvent (solvent administration group) were subcutaneously administered and, after 15 minutes, amount of 3 mg/kg of morphine was administered to all groups. As a control group, the solvent was subcutaneously administered and, after 15 minutes, a physiological saline was administered.
The test diet 10 mL/kg was orally administered at 15 minutes after administration of morphine. At thirty minutes after administration of the test diet (60 minutes after administration of the test substance), all mice were isolated from esophagus to an ileocecal part near a stomach cardia part. A distance from pyloric part of the stomach to an ileocecal part (full length of small intestine) and a distance until a carbon powder reaching front part (carbon powder movement distance) were measured. The antagonistic activity on the carbon powder transport of inhibitory activity by morphine was calculated as MPE (%) using the following equation. Transport rate (%)=(carbon powder movement distance)/full length of small intestine (cm))×100 M.P.E. (%)={(small intestine transport rate (%) of each individual of test compound administration group−average small intestine transport rate (%) of solvent administration group)/(average small intestine transport rate (%) of control group−average small intestine transport rate (%) of solvent administration group)}×100

Setting [4] is: [3H]-DADLE, rat cerebrum membrane fraction, read-out: Ki.
Setting [5] is: [3H]-DAMGO, rat cerebrum membrane fraction, read-out: Ki.

Like-named read-outs stand apart in the source and are kept apart here.

Usually Ki stands for a measure of affinity in units of concentration, obtained from inhibition or displacement.

As to `O=C(N[C@H]1CCOC1=O)C1=C(O)[C@@H]2Oc3c(O)ccc4c3[C@@]23CCN(CC2CC2)[C@H](C4)[C@]3(O)C1` [Compound I-145], the results for the Ki in assay [1] (setting [4]) and in assay [2] (setting [5]) were 13.9 nM and 28.1 nM, respectively. Moreover, the percent antagonism of morphine-inhibited transport (M.P.E.) at 3 mg/kg in assay [3] turned out to be 60.2%.
As for `O=C(Nc1cccc(C(=O)O)c1)C1=C(O)[C@@H]2Oc3c(O)ccc4c3[C@@]23CCN(CC2CC2)[C@H](C4)[C@]3(O)C1` [Compound I-188], the Ki in assay [1] came out at 3.01 nM; in assay [2], 17.3 nM. Moreover, the percent antagonism of morphine-inhibited transport (M.P.E.) at 3 mg/kg in assay [3] came to 74.6%.
`COC(=O)C1(NC(=O)C2=C(O)[C@@H]3Oc4c(O)ccc5c4[C@@]34CCN(CC3CC3)[C@H](C5)[C@]4(O)C2)CCC1` [Compound I-199]: the Ki was found to be 12.8 nM in assay [1] and 9.45 nM in assay [2]. In assay [3], the percent antagonism of morphine-inhibited transport (M.P.E.) at 3 mg/kg was 62.8%.
Taken in the same sequence, the figures for `O=C(Nc1ccc([N+](=O)[O-])cn1)C1=C(O)[C@@H]2Oc3c(O)ccc4c3[C@@]23CCN(CC2CC2)[C@H](C4)[C@]3(O)C1` [Compound I-208] were 13.3 nM, 5.89 nM and 81.2%.
For the compound `CCN(CC)S(=O)(=O)c1ccc(OC)c(NC(=O)C2=C(O)[C@@H]3Oc4c(O)ccc5c4[C@@]34CCN(CC3CC3)[C@H](C5)[C@]4(O)C2)c1` [Compound I-229], the inhibition constant Ki in assay [1] amounted to 5.9 nM; in assay [2] (setting [5]) it was 1.3 nM. In addition, the percent antagonism of morphine-inhibited transport (M.P.E.) at 3 mg/kg in assay [3] worked out at 39.7%.
For the compound `Cc1cc(=O)[nH]c2cc(NC(=O)C3=C(O)[C@@H]4Oc5c(O)ccc6c5[C@@]45CCN(CC4CC4)[C@H](C6)[C@]5(O)C3)ccc12` [Compound I-240], the Ki in assay [1] turned out to be 11.5 nM; in assay [2] (setting [5]), 6.85 nM. Further, the percent antagonism of morphine-inhibited transport (M.P.E.) at 3 mg/kg in assay [3] was 36.3%.
For the compound `COc1cc(NC(=O)C2=C(O)[C@@H]3Oc4c(O)ccc5c4[C@@]34CCN(CC3CC3)[C@H](C5)[C@]4(O)C2)ncn1` [Compound I-243], the Ki in assay [1] came out at 5.2 nM; in assay [2], 5.28 nM. Also, the percent antagonism of morphine-inhibited transport (M.P.E.) at 3 mg/kg in assay [3] came out at 52.6%.
With `Cc1ccc2nc(=O)c3c(n2c1)[C@@H]1Oc2c(O)ccc4c2[C@@]12CCN(CC1CC1)[C@H](C4)[C@]2(O)C3` [Compound I-267], the Ki came out at 41.5 nM in assay [1] (setting [4]) and 0.84 nM in assay [2] (setting [5]). Further, the percent antagonism of morphine-inhibited transport (M.P.E.) at 3 mg/kg in assay [3] worked out at 60%.
For `COCC1(NC(=O)C2=C(O)[C@@H]3Oc4c(O)ccc5c4[C@@]34CCN(CC3CC3)[C@H](C5)[C@]4(O)C2)CC1` [Compound I-283], the Ki amounted to 3.73 nM in assay [1] and 20.1 nM in assay [2]. The percent antagonism of morphine-inhibited transport (M.P.E.) at 3 mg/kg in assay [3] amounted to 63.7%.
On to `CC(C)(NC(=O)C1=C(O)[C@@H]2Oc3c(O)ccc4c3[C@@]23CCN(CC2CC2)[C@H](C4)[C@]3(O)C1)c1nc(-c2ccccc2)no1` [Compound I-284], for which the Ki in assay [1] (setting [4]) stood at 0.91 nM; in assay [2] it was 1.13 nM. In addition, the percent antagonism of morphine-inhibited transport (M.P.E.) at 3 mg/kg in assay [3] is 79.6%.
As to `Cc1noc(C(C)(C)NC(=O)C2=C(O)[C@@H]3Oc4c(O)ccc5c4[C@@]34CCN(CC3CC3)[C@H](C5)[C@]4(O)C2)n1` [Compound I-285], the Ki in assay [1] was determined as 5.77 nM; in assay [2] (setting [5]), 7.29 nM. Moreover, in assay [3], the percent antagonism of morphine-inhibited transport (M.P.E.) at 3 mg/kg worked out at 82.5%.
On to `COCC(C)(C)NC(=O)C1=C(O)[C@@H]2Oc3c(O)ccc4c3[C@@]23CCN(CC2CC2)[C@H](C4)[C@]3(O)C1` [Compound I-286], for which the Ki came out at 2.46 nM in assay [1] and 14 nM in assay [2]. Further, in assay [3], the percent antagonism of morphine-inhibited transport (M.P.E.) at 3 mg/kg amounted to 70.6%.
Taken in the same sequence, the figures for `COCC(C)(COC)NC(=O)C1=C(O)[C@@H]2Oc3c(O)ccc4c3[C@@]23CCN(CC2CC2)[C@H](C4)[C@]3(O)C1` [Compound I-288] were 5.36 nM, 14.4 nM and 101%.
With `CC(C)NC(=O)C1=C(NS(=O)(=O)c2ccc(F)cc2)[C@@H]2Oc3c(O)ccc4c3[C@@]23CCN(CC2CC2)[C@H](C4)[C@]3(O)C1` [Compound I-289], the Ki turned out to be 0.47 nM in assay [1] (setting [4]) and 12.9 nM in assay [2] (setting [5]). In addition, the percent antagonism of morphine-inhibited transport (M.P.E.) at 3 mg/kg in assay [3] is 67%.

(Values after patent publication US8536192B2, “6,7-unsaturated-7-carbamoyl substituted morphinan derivative” (priority 2005, dated 2013).)
